The source of these data is PubChem BioAssay (NCI).

Test systems include EKVX NSCLC; COLO 205 colon; DMS 273 small cell lung; NCI/ADR-RES ovarian; DLD-1 colon; RXF 393 renal; SR leukemia; OVCAR-8 ovarian; TK-10 renal; HOP-92 NSCLC.
Common to all, as to assay: growth of human tumour cells (NCI), 48 h

The structures appear in SMILES notation. Where “and” joins values, the source holds several entries; their conditions need not be identical. Identical values can stand only once.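 Interpolation was linear, between the two tested concentrations surrounding the appropriate level; five concentrations were tested over 48 hours in 96-well plates. GI50: concentration for 50% inhibition of growth. At the TGI there is no net growth.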

For `CCC1(OC(=O)CN)C(=O)OCc2c1cc1n(c2=O)Cc2cc3cc4c(cc3nc2-1)OCO4` (stereo not given), the GI50 in the experiment on EKVX NSCLC was 10.6 nM; with COLO 205 colon, 362 nM and 150 nM; with DMS 273 small cell lung it was less than 10 nM; in the experiment with NCI/ADR-RES ovarian it was less than 10 nM; with DLD-1 colon, 278 nM and 203 nM; in the experiment with RXF 393 renal, 15.8 nM. Moreover, the TGI with EKVX NSCLC was 495 nM; in the experiment with COLO 205 colon it was 2560 nM and 1780 nM; in the experiment with DMS 273 small cell lung it was 65.6 nM and 358 nM; with NCI/ADR-RES ovarian, 231 nM and 88.9 nM; in the experiment on DLD-1 colon, 40500 nM and > 100000 nM; with RXF 393 renal it was 119 nM.
As for `CCN(CCCl)c1cccc(NC(=O)c2ccc(C(=O)Nc3cccc(CN(C)C)c3)cc2)c1`, the TGI in the experiment on SR leukemia is 27300 nM; with OVCAR-8 ovarian, 1350 nM; in the experiment with TK-10 renal it was 779 nM; in the experiment with COLO 205 colon it was 240 nM; in the experiment on HOP-92 NSCLC, 1600 nM; with NCI/ADR-RES ovarian, more than 100000 nM. The molecule also displayed a TGI with RXF 393 renal of 29.8 nM.
Take `CS(=O)(=O)[O-].CS(=O)(=O)[O-].NC1CCCCC1N.[Pt+4]` (stereo not given): the GI50 with EKVX NSCLC was more than 100000 nM; in the experiment with OVCAR-8 ovarian, more than 74000 nM; with COLO 205 colon, 35900 nM; in the experiment with HOP-92 NSCLC, more than 100000 nM; in the experiment with NCI/ADR-RES ovarian it was more than 55200 nM; in the experiment with DLD-1 colon, more than 100000 nM. Also, the GI50 with RXF 393 renal is more than 100000 nM. The TGI in the experiment on EKVX NSCLC, in the experiment on OVCAR-8 ovarian, in the experiment with COLO 205 colon, in the experiment on HOP-92 NSCLC, in the experiment with NCI/ADR-RES ovarian and in the experiment with DLD-1 colon was more than 100000 nM in each case. This molecule showed a TGI in the experiment with RXF 393 renal of more than 100000 nM.
Regarding `CCN(CC)/[N+]([O-])=N/O`, the TGI in the experiment on SR leukemia, in the experiment on EKVX NSCLC, with OVCAR-8 ovarian, in the experiment on TK-10 renal, with DMS 273 small cell lung and with HOP-92 NSCLC was more than 100000 nM throughout. Besides, the TGI in the experiment on RXF 393 renal was more than 100000 nM.
On to `Cn1c(=O)n(CC2CS2)c2ccccc21` (stereo not given), for which the TGI with SR leukemia, in the experiment with EKVX NSCLC, in the experiment on TK-10 renal, in the experiment with COLO 205 colon, with DMS 273 small cell lung and in the experiment on HOP-92 NSCLC was more than 100000 nM in each case. Also, the TGI in the experiment on DLD-1 colon and with RXF 393 renal was more than 100000 nM in each case.
Regarding `CC1(C)[C@@H](OC(N)=O)C=C[C@]2(CO)[C@H]3CC[C@]4(C)[C@@H](c5ccc(=O)oc5)[C@@H](Cl)C[C@]4(O)C3=CC[C@@H]12`, the GI50 is 2.32 nM in the experiment with SR leukemia; less than 0.1 nM with EKVX NSCLC; 2.8 nM in the experiment on OVCAR-8 ovarian; 5.78 nM in the experiment with COLO 205 colon; 8.62 nM with HOP-92 NSCLC; less than 0.1 nM with NCI/ADR-RES ovarian. Moreover, the TGI was found to be 14.6 nM with SR leukemia; 8.06 nM in the experiment with EKVX NSCLC; 15.1 nM in the experiment with OVCAR-8 ovarian; 24.4 nM in the experiment with COLO 205 colon; 51.3 nM in the experiment with HOP-92 NSCLC; 12.7 nM in the experiment on NCI/ADR-RES ovarian.
